Experimental data as given in ChEMBL document CHEMBL2057090, “Discovery of novel PI3Kγ/δ inhibitors as potential agents for inflammation” (Bioorg Med Chem Lett, 2012).
Values after ≈ are worked out from the molar mass of the structure shown.

Tests used:
[1] = target: Phosphatidylinositol 4,5-bisphosphate 3-kinase catalytic subunit gamma isoform (Homo sapiens, UniProt P48736); assay: Inhibition of PI3Kgamma in human HL60 cell lysate by kinobead assay
[2] = target: T1, Phosphatidylinositol 4,5-bisphosphate 3-kinase catalytic subunit delta isoform (Homo sapiens, UniProt O00329); assay: Inhibition of PI3Kdelta in human HL60 cell lysate by kinobead assay
T1 sequence (O00329 whole entry): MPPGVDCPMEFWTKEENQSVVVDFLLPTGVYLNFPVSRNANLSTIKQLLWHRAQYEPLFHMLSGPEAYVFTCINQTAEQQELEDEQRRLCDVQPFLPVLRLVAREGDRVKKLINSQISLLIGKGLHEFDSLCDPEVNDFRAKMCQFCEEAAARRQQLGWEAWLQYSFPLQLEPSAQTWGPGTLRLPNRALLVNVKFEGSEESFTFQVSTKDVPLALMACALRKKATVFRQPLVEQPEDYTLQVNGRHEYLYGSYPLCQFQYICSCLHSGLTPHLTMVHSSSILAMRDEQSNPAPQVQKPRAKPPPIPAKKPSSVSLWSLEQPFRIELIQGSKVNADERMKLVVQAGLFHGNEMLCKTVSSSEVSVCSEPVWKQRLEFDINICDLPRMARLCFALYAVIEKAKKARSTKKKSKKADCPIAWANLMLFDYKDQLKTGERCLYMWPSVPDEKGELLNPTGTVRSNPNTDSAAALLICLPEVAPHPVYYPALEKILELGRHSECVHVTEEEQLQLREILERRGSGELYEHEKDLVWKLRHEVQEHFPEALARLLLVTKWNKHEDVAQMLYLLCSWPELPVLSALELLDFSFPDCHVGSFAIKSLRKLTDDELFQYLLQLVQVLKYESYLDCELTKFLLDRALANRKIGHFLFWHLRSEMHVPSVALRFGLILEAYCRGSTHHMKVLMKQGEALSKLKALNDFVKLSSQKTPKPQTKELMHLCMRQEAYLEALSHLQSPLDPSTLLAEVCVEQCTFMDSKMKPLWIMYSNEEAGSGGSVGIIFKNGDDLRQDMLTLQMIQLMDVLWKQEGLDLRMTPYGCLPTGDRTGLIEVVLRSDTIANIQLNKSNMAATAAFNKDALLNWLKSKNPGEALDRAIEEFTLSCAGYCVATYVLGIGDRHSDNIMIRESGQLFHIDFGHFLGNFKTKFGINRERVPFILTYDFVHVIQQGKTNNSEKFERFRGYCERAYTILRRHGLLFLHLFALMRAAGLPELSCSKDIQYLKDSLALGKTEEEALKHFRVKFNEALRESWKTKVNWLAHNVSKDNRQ

[3] = target: Phosphatidylinositol 4,5-bisphosphate 3-kinase catalytic subunit alpha isoform (Homo sapiens, UniProt P42336); assay: Inhibition of PI3Kalpha in human HL60 cell lysate by kinobead assay
Sequence of Phosphatidylinositol 4,5-bisphosphate 3-kinase catalytic subunit alpha isoform (P42336 whole entry, canonical isoform): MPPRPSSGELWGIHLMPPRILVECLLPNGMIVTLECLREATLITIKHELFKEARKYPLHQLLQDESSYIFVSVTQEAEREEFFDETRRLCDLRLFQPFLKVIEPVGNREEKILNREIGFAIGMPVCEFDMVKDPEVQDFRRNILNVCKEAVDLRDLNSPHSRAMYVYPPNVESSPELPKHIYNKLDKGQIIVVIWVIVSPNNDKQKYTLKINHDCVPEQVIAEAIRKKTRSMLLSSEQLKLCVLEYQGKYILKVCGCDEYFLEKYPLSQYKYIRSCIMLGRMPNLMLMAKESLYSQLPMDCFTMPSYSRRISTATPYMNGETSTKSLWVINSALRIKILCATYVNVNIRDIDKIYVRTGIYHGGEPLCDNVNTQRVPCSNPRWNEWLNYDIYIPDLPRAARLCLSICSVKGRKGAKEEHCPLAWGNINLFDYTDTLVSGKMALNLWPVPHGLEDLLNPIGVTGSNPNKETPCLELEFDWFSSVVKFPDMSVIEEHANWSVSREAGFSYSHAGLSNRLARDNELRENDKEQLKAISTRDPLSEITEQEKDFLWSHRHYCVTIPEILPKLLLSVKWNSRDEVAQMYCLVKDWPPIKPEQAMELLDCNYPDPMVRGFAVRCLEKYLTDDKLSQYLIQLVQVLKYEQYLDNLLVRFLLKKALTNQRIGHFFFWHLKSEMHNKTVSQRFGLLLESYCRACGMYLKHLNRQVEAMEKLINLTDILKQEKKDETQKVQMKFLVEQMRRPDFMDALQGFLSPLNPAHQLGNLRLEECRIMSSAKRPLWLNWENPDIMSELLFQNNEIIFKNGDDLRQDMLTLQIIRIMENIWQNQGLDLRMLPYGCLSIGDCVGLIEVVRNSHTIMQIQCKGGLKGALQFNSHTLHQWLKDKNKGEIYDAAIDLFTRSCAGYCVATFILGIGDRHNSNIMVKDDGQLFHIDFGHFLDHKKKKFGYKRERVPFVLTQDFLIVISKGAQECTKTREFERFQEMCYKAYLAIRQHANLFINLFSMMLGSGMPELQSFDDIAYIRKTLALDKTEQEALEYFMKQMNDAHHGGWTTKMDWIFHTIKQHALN

[4] = target: Phosphatidylinositol 4,5-bisphosphate 3-kinase catalytic subunit beta isoform (Homo sapiens, UniProt P42338); assay: Inhibition of PI3Kbeta in human HL60 cell lysate by kinobead assay; format: cell-free, HL-60
Sequence of Phosphatidylinositol 4,5-bisphosphate 3-kinase catalytic subunit beta isoform (P42338 whole entry, canonical isoform): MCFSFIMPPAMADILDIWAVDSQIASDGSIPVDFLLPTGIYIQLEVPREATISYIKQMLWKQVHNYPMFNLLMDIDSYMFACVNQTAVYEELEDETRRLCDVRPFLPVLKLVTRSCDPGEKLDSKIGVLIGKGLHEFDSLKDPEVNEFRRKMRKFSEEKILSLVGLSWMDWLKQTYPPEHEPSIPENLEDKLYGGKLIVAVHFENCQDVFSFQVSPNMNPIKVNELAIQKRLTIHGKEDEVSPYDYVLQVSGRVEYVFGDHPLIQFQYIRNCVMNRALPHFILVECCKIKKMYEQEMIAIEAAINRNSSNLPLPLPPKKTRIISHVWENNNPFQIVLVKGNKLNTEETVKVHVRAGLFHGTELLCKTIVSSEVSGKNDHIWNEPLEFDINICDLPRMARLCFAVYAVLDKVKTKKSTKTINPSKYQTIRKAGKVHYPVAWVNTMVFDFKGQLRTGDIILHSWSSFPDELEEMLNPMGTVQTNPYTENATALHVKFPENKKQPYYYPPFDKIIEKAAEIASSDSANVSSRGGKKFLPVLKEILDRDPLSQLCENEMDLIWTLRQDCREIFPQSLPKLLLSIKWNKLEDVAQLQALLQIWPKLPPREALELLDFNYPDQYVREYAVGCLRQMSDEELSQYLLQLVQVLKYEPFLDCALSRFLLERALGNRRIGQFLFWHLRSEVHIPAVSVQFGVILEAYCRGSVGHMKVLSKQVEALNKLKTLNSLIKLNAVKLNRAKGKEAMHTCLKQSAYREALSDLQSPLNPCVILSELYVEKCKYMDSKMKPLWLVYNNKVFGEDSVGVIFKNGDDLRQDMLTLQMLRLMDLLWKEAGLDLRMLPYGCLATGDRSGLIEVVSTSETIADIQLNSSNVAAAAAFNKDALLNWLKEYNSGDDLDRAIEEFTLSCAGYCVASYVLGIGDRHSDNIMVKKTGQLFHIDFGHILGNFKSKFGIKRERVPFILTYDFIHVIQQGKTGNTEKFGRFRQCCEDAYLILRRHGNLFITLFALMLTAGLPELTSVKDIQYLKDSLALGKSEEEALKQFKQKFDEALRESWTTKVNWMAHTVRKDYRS

[5] = Antiinflammatory activity in human neutrophils assessed as inhibition of fMLP-induced migration; format: functional, cell-based; settings: Neutrophil
[6] = tested on: Liver microsomes; assay: Intrinsic clearance in human liver microsomes assessed per g of liver; format: ADME, Microsome
[7] = tested on: Liver microsomes; assay: Intrinsic clearance in rat liver microsomes assessed per g of liver; format: ADME, Microsome
[8] = Apparent permeability from apical to basal side of human Caco2 cells; format: ADME, cell-based; settings: Caco-2
[9] = Efflux ratio of apparent permeability across human Caco2 cells; format: ADME, cell-based; settings: Caco-2
[10] = Kinetic solubility in 1%DMSO solution; format: physicochemical; settings: read-out: Kinetic_solubility
[11] = tested on: Mus musculus; assay: Antiinflammatory activity in BALB/c mouse assessed as reduction in LPS-induced neutrophil accumulation in bronchoalveolar lung fluid at 0.5 mg, it administered 1 hr prior to LPS-challenge and measured after 8 hrs relative to vehicle treated control; format: functional; set-up: scale not given: the % may be the effect or the level left
[12] = Clearance in iv dosed rat; format: ADME, organism-based; settings: in vivo
[13] = tested on: Plasma; assay: Drug metabolism in iv dosed rat plasma assessed as CZC19945 formation; format: ADME, organism-based; settings: in vivo
[14] = tested on: Plasma; assay: Drug metabolism in iv dosed rat plasma assessed as 2-(3-(6-(5-(N-tert-butylsulfamoyl)pyridin-3-yl)-[1,2,4]triazolo[1,5-a]pyridin-2-yl)ureido)acetic acid formation; format: ADME, organism-based; settings: in vivo

Sequence of Phosphatidylinositol 4,5-bisphosphate 3-kinase catalytic subunit gamma isoform (P48736 whole entry, canonical isoform): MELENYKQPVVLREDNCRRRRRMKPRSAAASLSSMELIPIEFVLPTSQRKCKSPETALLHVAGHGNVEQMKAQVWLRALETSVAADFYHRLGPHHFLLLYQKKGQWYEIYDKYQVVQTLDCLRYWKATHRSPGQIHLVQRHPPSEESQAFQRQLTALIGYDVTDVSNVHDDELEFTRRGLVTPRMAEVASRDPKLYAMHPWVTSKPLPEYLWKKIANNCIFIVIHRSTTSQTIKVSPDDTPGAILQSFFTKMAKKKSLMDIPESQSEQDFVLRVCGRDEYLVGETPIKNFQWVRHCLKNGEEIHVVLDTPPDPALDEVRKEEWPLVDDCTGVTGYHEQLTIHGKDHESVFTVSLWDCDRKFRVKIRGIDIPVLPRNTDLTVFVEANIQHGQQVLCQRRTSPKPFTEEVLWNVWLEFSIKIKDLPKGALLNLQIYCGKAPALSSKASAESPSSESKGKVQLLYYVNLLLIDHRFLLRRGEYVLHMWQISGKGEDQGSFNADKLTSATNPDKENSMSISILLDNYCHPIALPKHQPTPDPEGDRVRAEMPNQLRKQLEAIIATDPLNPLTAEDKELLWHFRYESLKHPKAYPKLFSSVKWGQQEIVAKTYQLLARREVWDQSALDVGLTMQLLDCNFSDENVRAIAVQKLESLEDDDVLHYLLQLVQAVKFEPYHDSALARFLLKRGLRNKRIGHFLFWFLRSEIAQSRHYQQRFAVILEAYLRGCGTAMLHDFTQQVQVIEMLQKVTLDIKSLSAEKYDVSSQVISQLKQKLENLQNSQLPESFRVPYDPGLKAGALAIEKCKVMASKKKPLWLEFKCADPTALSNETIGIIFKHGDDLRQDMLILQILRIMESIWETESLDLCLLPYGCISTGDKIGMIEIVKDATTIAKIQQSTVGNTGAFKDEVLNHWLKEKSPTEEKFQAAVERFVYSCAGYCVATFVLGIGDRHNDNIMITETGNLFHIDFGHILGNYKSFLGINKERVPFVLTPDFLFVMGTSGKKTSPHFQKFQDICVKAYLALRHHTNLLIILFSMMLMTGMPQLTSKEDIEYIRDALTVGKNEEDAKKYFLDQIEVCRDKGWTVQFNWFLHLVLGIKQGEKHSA

IC50 [1] | IC50 [2] | IC50 [3] | IC50 [4] | IC50 [5] | CLint [6] | CLint [7] | Papp A→B [8] | efflux ratio [9] | solubility kinetic [10] | clearance [12] | Drug metabolism [13] | Drug metabolism [14] | SMILES | Activity [11]
251 nM | > 25100 nM | > 100000 nM | > 100000 nM | – | – | – | – | – | – | – | – | – | CC(C)(C)NS(=O)(=O)c1cncc(-c2ccc3nc(NC(=O)Nc4ccccc4)nn3c2)c1 | –
63.1 nM | 1580 nM | > 20000 nM | 3160 nM | 1580 nM | – | – | – | – | – | – | – | – | CC(C)(C)NS(=O)(=O)c1cncc(-c2ccc3nc(NC(=O)NCc4ccccc4)nn3c2)c1 | –
31.6 nM | 25.1 nM | > 3160 nM | 1000 nM | 398 nM | – | – | – | – | – | – | – | – | CC(C)(C)NS(=O)(=O)c1cncc(-c2ccc3nc(NC(=O)NCCc4ccccc4)nn3c2)c1 | –
25.1 nM | 12.6 nM | 2000 nM | 79.4 nM | 251 nM | – | – | – | – | – | – | – | – | Cc1noc(C)c1CCNC(=O)Nc1nc2ccc(-c3cncc(S(=O)(=O)NC(C)(C)C)c3)cn2n1 | –
3.16 nM | 79.4 nM | 12600 nM | 1260 nM | 794 nM | 0.5 mL/min/g | 0.9 mL/min/g | 0.54 ×10⁻⁶ cm/s | 109 | < 6.5 µM | – | – | – | CN(C)C(=O)CNC(=O)Nc1nc2ccc(-c3cncc(S(=O)(=O)NC(C)(C)C)c3)cn2n1 | –
25.1 nM | 200 nM | 631 nM | 631 nM | 158 nM | – | – | – | – | – | – | – | – | CC(C)(C)NS(=O)(=O)c1cncc(-c2ccc3nc(NC(=O)NCCn4cccn4)nn3c2)c1 | –
7.94 nM | 15.8 nM | 794 nM | > 200 nM | 398 nM | – | – | – | – | – | – | – | – | Cc1nc(CCNC(=O)Nc2nc3ccc(-c4cncc(S(=O)(=O)NC(C)(C)C)c4)cn3n2)cs1 | –
6.31 nM | 25.1 nM | 1260 nM | 126 nM | 126 nM | – | – | – | – | – | – | – | – | CC(C)(C)NS(=O)(=O)c1cncc(-c2ccc3nc(NC(=O)NCCc4cnccn4)nn3c2)c1 | –
10 nM | 79.4 nM | 3160 nM | 251 nM | 316 nM | – | – | – | – | – | – | – | – | CC(C)(C)NS(=O)(=O)c1cncc(-c2ccc3nc(NC(=O)NCCc4nnc(C5CC5)o4)nn3c2)c1 | –
2.51 nM | 6.31 nM | 794 nM | 63.1 nM | 79.4 nM | 0 mL/min/g | 0.4 mL/min/g | 0.08 ×10⁻⁶ cm/s | 252 | > 100 µM | – | – | – | CC(C)(C)NS(=O)(=O)c1cncc(-c2ccc3nc(NC(=O)NCCn4nnc(C5CC5)n4)nn3c2)c1 | 37%
63.1 nM | 50.1 nM | > 6310 nM | 2510 nM | 251 nM | – | – | – | – | – | – | – | – | CC(C)(C)NS(=O)(=O)c1cncc(-c2ccc3nc(NC(=O)NCCCn4nnc(C5CC5)n4)nn3c2)c1 | –
15.8 nM | 794 nM | > 15800 nM | > 2000 nM | 20000 nM | – | – | – | – | – | – | – | – | CNC(=O)CNC(=O)Nc1nc2ccc(-c3cncc(S(=O)(=O)NC(C)(C)C)c3)cn2n1 | –
6.31 nM | 63.1 nM | 1000 nM | 1260 nM | 1580 nM | – | – | – | – | – | – | – | – | CC(C)(C)NS(=O)(=O)c1cncc(-c2ccc3nc(NC(=O)NCC(=O)N4CCCC4)nn3c2)c1 | –
3.98 nM | 15.8 nM | 398 nM | 398 nM | 501 nM | 0 mL/min/g | 0.8 mL/min/g | – | – | > 100 µM | > 200 mL/min/kg | Not Active | Not Active | CC(C)(C)NS(=O)(=O)c1cncc(-c2ccc3nc(NC(=O)NCC(=O)N4CCOCC4)nn3c2)c1 | 34%
2.51 nM | 12.6 nM | 794 nM | 1000 nM | 1260 nM | – | – | – | – | – | – | – | – | CN1CCN(C(=O)CNC(=O)Nc2nc3ccc(-c4cncc(S(=O)(=O)NC(C)(C)C)c4)cn3n2)CC1 | –
100 nM | 6310 nM | 10000 nM | 2510 nM | – | – | – | – | – | – | – | – | – | CS(=O)(=O)c1cncc(-c2ccc3nc(N)nn3c2)c1 | –
25.1 nM | 1580 nM | 2510 nM | 200 nM | 1000 nM | – | – | – | – | – | – | – | – | CC(C)(C)NS(=O)(=O)c1cncc(-c2ccc3nc(N)nn3c2)c1 | –
12.6 nM | 794 nM | > 5010 nM | 398 nM | 794 nM | – | – | – | – | – | – | – | – | CNC(=O)Nc1nc2ccc(-c3cncc(S(=O)(=O)NC(C)(C)C)c3)cn2n1 | –
126 nM | 3160 nM | > 25100 nM | 3980 nM | 7940 nM | – | – | – | – | – | – | – | – | CC(C)(C)NS(=O)(=O)c1cncc(-c2ccc3nc(NC(=O)N4CCOCC4)nn3c2)c1 | –
126 nM | 1260 nM | > 5010 nM | > 1000 nM | 12600 nM | – | – | – | – | – | – | – | – | CN(C)CCNC(=O)Nc1nc2ccc(-c3cncc(S(=O)(=O)NC(C)(C)C)c3)cn2n1 | –
15.8 nM | 20 nM | 1260 nM | > 200 nM | 50.1 nM | 1.4 mL/min/g | 0.9 mL/min/g | – | – | 65 µM (≈ 32.7 µg/mL) | – | – | – | CC(C)(C)NS(=O)(=O)c1cncc(-c2ccc3nc(NC(=O)NCCN4CCOCC4)nn3c2)c1 | –
